# From patent US20210059246A1, “METHOD FOR EFFECTIVELY CONTROLLING COCCOID INSECT PESTS” (Ecología y Protección Agrícola, S.L., priority 2017, published 2021)
# Several values for one entry are separate records, joined by “and”; a condition that tells them apart may be missing. Equal values may be shown once.
# Legend:
# Planococcus ficus males = experiment: Field trap test: effective flow attracting P. ficus males within the interlinked semiochemical matrix; assay type: in vivo; conditions: for EFFECTIVE FLOW: table grapes
# Protocol: The response of the males of the species P. ficus, at different emission flows of senecioate S-lavandulyl, was evaluated in various field tests carried out on table grape crops located in the Municipal District of […] de Murcia and Totana, both municipalities in the Region of Murcia in 2015, 2016 and 2017. For these assays, four plots of different varieties of table grapes with surface areas comprised between 1 and 4 hectares were initially taken. An artificial semiochemical matrix-1 was generated therein through the installation of 1,000 diffusers/ha, with a substantially constant emission flow of 300 μg/day of S-lavandulyl senecioate (initial flow-1). The choice of this initial emission flow is based on the average emission of commercial diffusers for controlling this pest. In the interior of these artificial semiochemical matrices, two blocks of six diffusers with different emission flows were installed in each assay. These blocks were separated by a distance of more than 80 meters therebetween and the diffusers were separated 25 meters intra-block. Each block included: • (a) a glued trap, without any kind of semiochemical emission. • (b) a glued trap, with a substantially constant emission flow of 10 μg/day of S-lavandulyl senecioate. • (c) a glued trap, with a diffuser with a substantially constant emission flow of 50 μg/day of S-lavandulyl senecioate. • (d) a glued trap, with a diffuser with a substantially constant emission flow of 100 μg/day of S-lavandulyl senecioate. • (e) a glued trap with a diffuser with a substantially constant emission flow of 200 μg/day of S-lavandulyl senecioate. • (f) a glued trap with a diffuser with a substantially constant emission flow of 300 μg/day of S-lavandulyl senecioate (initial flow-1). All the traps were placed in the trees at a height of 2 m. The traps used were of the 9.5×15 cm white sticky sheet type. Diffusers with a substantially constant emission flow were fixed to the center of the sticky sheet. Replacement of the sheets, intra-block rotation of the traps and reading of the male captures was performed on a weekly basis. Upon completing the first rotation of the traps it was observed that those whose emission corresponded to the emission flow of […] (effective flow-1) achieved the highest number of captures within the interlinked semiochemical matrix (FIG. 4). Next, a new iteration for obtaining the effective flow-2 within the new interlinked matrix was initiated, to which end the previous diffusers were withdrawn and a new artificial semiochemical matrix-2 was generated through the installation of 1,000 diffusers/ha, with a substantially constant emission flow of 10 μg/day (effective flow-1) of S-lavandulyl senecioate. Two blocks of six diffusers were installed in the interior of this new interlinked semiochemical matrix in each assay. These blocks were separated by a distance of more than 80 meters therebetween and the diffusers were separated 25 meters intra-block. Each block included: • (a) a glued trap, without any kind of semiochemical emission; • (b) a glued trap, with a diffuser with a substantially constant emission flow of 0.1 μg/day of S-lavandulyl senecioate. • (c) a glued trap, with a diffuser with a substantially constant emission flow of 5 μg/day of S-lavandulyl senecioate. • (d) a glued trap, with a diffuser with a substantially constant emission flow of 10 μg/day of S-lavandulyl senecioate. • (e) a glued trap with a diffuser with a substantially constant emission flow of 15 μg/day of S-lavandulyl senecioate. • (f) a glued trap with a diffuser with a substantially constant emission flow of 25 μg/day of S-lavandulyl senecioate. • (g) a glued trap with a diffuser with a substantially constant emission flow of 50 μg/day of S-lavandulyl senecioate. All the traps were placed in the trees at a height of 2 m. The traps used were of the 9.5×15 cm white sticky sheet type. The diffusers with a substantially constant emission flow were fixed to the center of the sticky sheet. […]
# Planococcus ficus = experiment: Field control of P. ficus in table grape crops, percentage of bunches with presence of pest, molasses or fumigines; assay type: in vivo; conditions: table grapes
# Protocol: With the final definitive effective flow value (5-10 μg/diffuser/day), the assays for ascertaining the effective flow rate resulting from the combinations of the final effective flow with an effective number of devices of 1,000 diffusers/ha, 500 diffusers/ha, 250 diffusers/ha and 100 diffusers/ha continued in 2016 and 2017. Since the plots where the assays were carried out were used for organic or environmentally friendly farming, it was not possible to establish a chemical control for comparing the results of the effective control of Planococcus ficus. The effectiveness of the treatments was assessed in accordance with the percentage of bunches with presence of Planococcus ficus, molasses or fumigines by sampling prior to picking the grapes. In order to determine said percentage, 20 vines per hectare were taken randomly and 20 bunches were inspected in each, of which the 10 bunches closest to the center of the vine and the 10 bunches farthest from the vine were chosen, covering the entire vine. Both bunches in contact with primary branches were taken and isolated without touching any other branch. A total of […].
# [1] = test system: Aonidiella aurantii males; experiment: Field trap test: effective flow attracting A. aurantii males within the interlinked semiochemical matrix; assay type: in vivo; conditions: for EFFECTIVE FLOW: orange
# Protocol: Experiments for obtaining an effective flow to combat the diaspidid Aonidiella aurantii were carried out on citrus crops located in the province of Huelva in 2015 and 2016.
# For these assays, four plots of different varieties of citrus trees with surface areas comprised between 2 and 10 hectares were initially taken.
# An artificial semiochemical matrix 1 was generated therein by arranging 500 diffusers/ha, with a substantially constant initial emission flow-1 of 300 μg/diffuser/day (optimal flow according to the state of the art) of (3S,6RS)-3-methyl-6-isopropenyl-9-decen-1-yl acetate.
# In the interior of these artificial semiochemical matrices, two blocks of seven diffusers with different emission flows were installed in each assay. These blocks were separated by a distance of more than 80 meters therebetween and the diffusers were separated 25 meters intra-block. Each block included: • (a) a glued trap, without any kind of semiochemical emission; • (b) a glued trap, with a diffuser with a substantially constant emission flow of 25 μg/day of (3S,6RS)-3-methyl-6-isopropenyl-9-decen-1-yl acetate. • (c) a glued trap, with a diffuser with a substantially constant emission flow of 50 μg/day of (3S,6RS)-3-methyl-6-isopropenyl-9-decen-1-yl acetate. • (d) a glued trap, with a diffuser with a substantially constant emission flow of 100 μg/day of (3S,6RS)-3-methyl-6-isopropenyl-9-decen-1-yl acetate. • (e) a glued trap with a diffuser with a substantially constant emission flow of 200 μg/day of (3S,6RS)-3-methyl-6-isopropenyl-9-decen-1-yl acetate. • (f) a glued trap with a diffuser with a substantially constant emission flow of 300 μg/day of (3S,6RS)-3-methyl-6-isopropenyl-9-decen-1-yl acetate (initial flow-1). • (g) a glued trap with a diffuser with a substantially constant emission flow of 400 μg/day of (3S,6RS)-3-methyl-6-isopropenyl-9-decen-1-yl acetate.
# All the traps were placed in the trees at a height of 1.5 m. The traps used were of the 9.5×15 cm white sticky sheet type. Diffusers with a substantially constant emission flow were fixed to the center of the sticky sheet. Replacement of the sheets, intra-block rotation of the traps and reading of the male captures was performed on a weekly basis. Upon completing the first rotation of the traps, it was observed that those whose emission corresponded to the flow of […] had the highest number of captured males and not the traps with an initial flow-1 of 300 μg/diffuser/day (FIG. 1).
# Subsequently, a new iteration for obtaining the effective flow-2 within the new interlinked matrix was initiated, to which end the previous diffusers were withdrawn and a new artificial semiochemical matrix-2 was generated through the installation of 500 diffusers/ha, with a substantially constant initial emission flow-2 equal to 25 μg/day (effective flow-1) of (3S,6RS)-3-methyl-6-isopropenyl-9-decen-1-yl acetate.
# Two blocks of seven diffusers were installed in the interior of this new interlinked semiochemical matrix in each assay. These blocks were separated by a distance of more than 80 meters therebetween and the diffusers were separated 25 meters intra-block. […]
# Aonidiella aurantii [2] = experiment: Field control of A. aurantii in citrus crops, percentage of damaged fruit; assay type: in vivo; conditions: 15.00 μg/diffuser/day
# Protocol: With the final effective flow value (15 μg/diffuser/day), the assays for ascertaining the effective flow rate resulting from the combinations of the final effective flow of 15 μg/diffuser/day with an effective number of devices of 500 diffusers/ha, 380 diffusers/ha, 250 diffusers/ha, 100 diffusers/ha and 50 diffusers/ha continued in 2017, in addition to the result of chemical controls carried out using the products currently authorized to combat this pest. The effectiveness of the treatments was evaluated in accordance with the percentage of damaged fruit by means of sampling prior to picking the fruit. In order to determine said percentage, the number of shields of A. aurantii females per fruit was counted using the following protocol: 20 trees were selected per hectare and 10 fruits were taken from each tree: 8 from the exterior (from all the orientations and randomly) and 2 from the interior (randomly). A fruit with more than 10 shields was considered damaged. In the case of the treatment based on chemical control, a surface area equivalent to the other treatments was evaluated.
# [3] = test system: Aonidiella aurantii males; conditions: within natural semiochemical matrix; Vacas et al. 2017; cited from earlier work
# Aonidiella aurantii [4] = experiment: Field control of A. aurantii in citrus crops, percentage of damaged fruit; assay type: in vivo; conditions: for EFFECTIVE CONTROL [% DAMAGE]: orange
smiles,measurement,setting,value
C=C(C)[C@H](CC=C(C)C)COC(=O)C=C(C)C [S-lavandulyl senecioate],EFFECTIVE FLOW,"Planococcus ficus males; 1st iteration, artificial semiochemical matrix 300.00 μg/diffuser/day, 1,000 diff/Ha, 2015 Alhama de Murcia",10.00 μg/diffuser/day
same,EFFECTIVE FLOW,"Planococcus ficus males; 2nd iteration, artificial semiochemical matrix 10.00 μg/diffuser/day, 1,000 diff/Ha, 2016 Alhama de Murcia",10.00 μg/diffuser/day
same,EFFECTIVE FLOW,"Planococcus ficus males; 3rd iteration, artificial semiochemical matrix 5.00 μg/diffuser/day, 1,000 diff/Ha, 2017 Alhama de Murcia",5.00 μg/diffuser/day
same,EFFECTIVE FLOW,"Planococcus ficus males; 3rd iteration, artificial semiochemical matrix 10.00 μg/diffuser/day, 500 diff/Ha, 2016 Alhama de Murcia",10.00 μg/diffuser/day
same,final definitive effective flow value,Planococcus ficus males; after second iteration,5-10 μg/diffuser/day
same,emission flow with the highest number of captures (effective flow-1),"Planococcus ficus males; matrix-1 of 1,000 diffusers/ha at 300 μg/day, FIG. 4",10 µg/day
same,flows with the highest number of male captures,"Planococcus ficus males; matrix-2 of 1,000 diffusers/ha at 10 μg/day, FIG. 5",5 µg/day and 10 µg/day
same,EFFECTIVE CONTROL [% DAMAGE],"Planococcus ficus; 5 μg/diffuser/day, 100 diff/Ha, 0.50 mg/Ha/day, 2017 Totana-Murcia",4.50%
same,EFFECTIVE CONTROL [% DAMAGE],"Planococcus ficus; 5 μg/diffuser/day, 250 diff/Ha, 1.25 mg/Ha/day, 2017 Totana-Murcia",1.80%
same,EFFECTIVE CONTROL [% DAMAGE],"Planococcus ficus; 5.00 μg/diffuser/day, 500 diff/Ha, 2.50 mg/Ha/day, 2017 Alhama de Murcia",0.80% and 1.40%
same,EFFECTIVE CONTROL [% DAMAGE],"Planococcus ficus; 5.00 μg/diffuser/day, 1,000 diff/Ha, 5.00 mg/Ha/day, 2017 Alhama de Murcia",2.30% and 0.00%
same,EFFECTIVE CONTROL [% DAMAGE],"Planococcus ficus; 10 μg/diffuser/day, 100 diff/Ha, 1.00 mg/Ha/day, 2017 Totana-Murcia",3.00%
same,EFFECTIVE CONTROL [% DAMAGE],"Planococcus ficus; 10 μg/diffuser/day, 250 diff/Ha, 2.50 mg/Ha/day, 2017 Totana-Murcia",2.90%
same,EFFECTIVE CONTROL [% DAMAGE],"Planococcus ficus; 10.00 μg/diffuser/day, 500 diff/Ha, 5.00 mg/Ha/day, 2016 Alhama de Murcia",0%
same,EFFECTIVE CONTROL [% DAMAGE],"Planococcus ficus; 10.00 μg/diffuser/day, 1,000 diff/Ha, 10.00 mg/Ha/day, 2016 Alhama de Murcia",1.20% and 0.90% and 3.70%
"C=CCCC(CC[C@H](C)CCOC(C)=O)C(=C)C (mixture of isomers) [(3S,6RS)-3-methyl-6-isopropenyl-9-decen-1-yl acetate]",EFFECTIVE FLOW,"[1]; 1st iteration, artificial semiochemical matrix 300.00 μg/diffuser/day, 500 diff/Ha, 2015 Rio Tinto-Huelva",25.00 μg/diffuser/day
same,EFFECTIVE FLOW,"[1]; 2nd iteration, artificial semiochemical matrix 25.00 μg/diffuser/day, 500 diff/Ha, 2016 Nerva Huelva",15.00 μg/diffuser/day
same,EFFECTIVE FLOW,"[1]; 3rd iteration, artificial semiochemical matrix 15.00 μg/diffuser/day, 380 diff/Ha, 2016 El Campillo-Huelva",15.00 μg/diffuser/day
same,emission flow with the highest number of captured males (effective flow-1),"[1]; first rotation, matrix-1 of 500 diffusers/ha at 300 μg/diffuser/day, FIG. 1",25 µg/diffuser/day
same,emission flow with higher number of captures (effective flow-2),"[1]; matrix-2 of 500 diffusers/ha at 25 μg/day, FIG. 2",15 µg/day
same,final effective flow,"[1]; third iteration, matrix of 500 diffusers/ha at 15 μg/day, FIG. 3",15 μg/diffuser/day
same,EFFECTIVE CONTROL [% DAMAGE],"Aonidiella aurantii [2]; 50 diff/Ha, 0.75 mg/Ha/day, 2017 Serra-Valencia, orange",3.30% and 4.00%
same,EFFECTIVE CONTROL [% DAMAGE],"Aonidiella aurantii [2]; 100 diff/Ha, 1.50 mg/Ha/day, 2017 Serra-Valencia, orange",5.10% and 3.80%
same,EFFECTIVE CONTROL [% DAMAGE],"Aonidiella aurantii [2]; 250 diff/Ha, 3.75 mg/Ha/day, 2017 Monserrat-Valencia, mandarine",4.20%
same,EFFECTIVE CONTROL [% DAMAGE],"Aonidiella aurantii [2]; 250 diff/Ha, 3.75 mg/Ha/day, 2017 Monserrat-Valencia, orange",3.00%
same,EFFECTIVE CONTROL [% DAMAGE],"Aonidiella aurantii [2]; 250 diff/Ha, 3.75 mg/Ha/day, 2017 Picasent-Valencia, mandarine",1.90%
same,optimal flow according to the state of the art,[3],300 μg/diffuser/day
same,effective flow rate value determined within the interlinked semiochemical matrix after successive iterations,Aonidiella aurantii [4]; 5 μg/day at 500 emission points per hectare,2.5 mg per hectare and day
same,EFFECTIVE CONTROL [% DAMAGE],"Aonidiella aurantii [4]; 15.00 μg/diffuser/day, 380 diff/Ha, 5.70 mg/Ha/day, 2016 El Campillo-Huelva",1.70% and 0.70% and 0.60%
same,flow rate corresponding to the optimal flow according to the state of the art,Aonidiella aurantii [4]; 300 μg/day at 500 emission points per hectare,150 mg per hectare and day
same,EFFECTIVE CONTROL [% DAMAGE],"Aonidiella aurantii [4]; matrix 25.00 μg/diffuser/day, 500 diff/Ha, 12.50 mg/Ha/day, 2016 Nerva Huelva",7.30% and 7.50% and 8.00%
